# pIC50: −log10 of the molar value. Where two headings read alike, the source gives them in different places.
# Assays:
# [1] = biological target: HEK293 cells over-expressing PDE-10A (Homo sapiens (Human), UniProt Q9Y233); assay: whole cell PDE-10 assay, intracellular cGMP in HEK293 cells over-expressing PDE-10A; type: cell-based; conditions: concentration elevating intracellular cyclic nucleotide 300% above baseline; HEK293 over-expressing PDE-10A, 30 min compound, 200 μM sodium nitroprusside 2 min
# [2] = biological target: recombinant human PDE-10 enzyme (PDE-10A) (Homo sapiens (Human), UniProt Q9Y233); assay: IMAP PDE Fluorescence Polarization assay, human PDE-10 inhibition (enzyme assay); type: biochemical
# Description: In one embodiment, the compounds provided herein were assayed for their ability to inhibit human PDE-10A. In one embodiment, the activities of the compounds were determined using the Molecular Devices IMAP PDE Fluorescence Polarization assay using recombinant human PDE-10 enzyme expressed in a baculoviral system. Briefly, 10 μL of a compound (0.2 nM-20 μM) was added to either a 96-well half area black plate or a 384-well black plate along with 10 μL of Fluorescein-labeled cAMP/cGMP substrate as per manufacturer's instructions and 10 μL of PDE enzyme (activity 0.1 U). Following a 40-minute incubation at 37° C., 60 μL of IMAP binding reagent was added. […] The data was analyzed using Prism Software (GraphPad Inc, San Diego, Calif.).
# [3] = recombinant human PDE-10, fluorescein-labeled cAMP/cGMP substrate, 40 min at 37° C.
# Chain of recombinant human PDE-10 enzyme (PDE-10A) (Q9Y233 whole entry): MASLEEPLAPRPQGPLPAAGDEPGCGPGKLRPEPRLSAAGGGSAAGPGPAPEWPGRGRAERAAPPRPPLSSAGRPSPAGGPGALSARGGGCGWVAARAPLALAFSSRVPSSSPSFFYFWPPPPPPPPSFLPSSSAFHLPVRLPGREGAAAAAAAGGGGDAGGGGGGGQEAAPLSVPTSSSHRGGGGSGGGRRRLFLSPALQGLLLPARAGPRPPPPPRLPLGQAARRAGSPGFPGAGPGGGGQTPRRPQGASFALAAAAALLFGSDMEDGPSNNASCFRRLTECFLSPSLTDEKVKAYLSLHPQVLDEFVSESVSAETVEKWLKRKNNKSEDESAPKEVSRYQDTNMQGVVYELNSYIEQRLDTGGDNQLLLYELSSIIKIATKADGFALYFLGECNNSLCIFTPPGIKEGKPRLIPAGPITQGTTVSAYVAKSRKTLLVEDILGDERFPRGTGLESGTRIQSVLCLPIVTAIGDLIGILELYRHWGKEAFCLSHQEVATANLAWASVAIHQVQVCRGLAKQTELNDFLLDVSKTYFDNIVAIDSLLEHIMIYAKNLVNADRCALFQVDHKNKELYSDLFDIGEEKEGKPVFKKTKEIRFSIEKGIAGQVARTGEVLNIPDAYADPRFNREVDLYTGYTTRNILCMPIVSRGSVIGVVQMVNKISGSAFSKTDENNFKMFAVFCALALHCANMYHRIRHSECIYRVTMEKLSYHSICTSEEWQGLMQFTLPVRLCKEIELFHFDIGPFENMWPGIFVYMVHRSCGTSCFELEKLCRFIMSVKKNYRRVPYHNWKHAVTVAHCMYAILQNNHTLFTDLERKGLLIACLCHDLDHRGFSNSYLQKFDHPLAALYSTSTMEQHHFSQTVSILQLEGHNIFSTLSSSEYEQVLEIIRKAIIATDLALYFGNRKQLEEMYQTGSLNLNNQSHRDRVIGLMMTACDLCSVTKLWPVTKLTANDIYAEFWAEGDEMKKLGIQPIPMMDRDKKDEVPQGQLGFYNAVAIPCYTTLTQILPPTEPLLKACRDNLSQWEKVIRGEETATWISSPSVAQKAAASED
# Chain of HEK293 cells over-expressing PDE-10A (Q9Y233 whole entry): as above
Structure (SMILES),PDE-10 EC300 (μM) [1],"pIC50 [2, 3]",pIC50 [2]
Cn1cc(-c2cccc(F)c2F)nc1CCc1cnc2ccccc2n1 [Compound 50],++++ (IC50 or EC300<0.5 μM ++++),> 6.30,–
Cc1cc(C)nc(CCc2nc3c4cccnc4ccc3n2C)n1 [Compound 193],++++ (IC50 or EC300<0.5 μM ++++),> 6.30,–
c1ccc2nc(CCc3nc4ccc5ncccc5n4n3)ccc2c1 [Compound 146],++++ (IC50 or EC300<0.5 μM ++++),> 6.30,–
Cc1nc(CCc2nc3c4cccnc4ccc3n2C)nc(C)c1Cl [Compound 208],++++ (IC50 or EC300<0.5 μM ++++),> 6.30,–
Fc1ccccc1-c1c[nH]c(CCc2ccc3ccccc3n2)n1 [Compound 69],++ (1<IC50 or EC300<10 μM ++),> 6.30,–
c1ccc(-c2c[nH]c(OCc3cnc4ccccc4n3)n2)cc1 [Compound 123],++ (1<IC50 or EC300<10 μM ++),> 6.30,–
"Cc1ncc(C)n2nc(CCc3ccc4ccccc4n3)nc12 [Compound 125, 2-(2-(5,8-Dimethyl-[1,2,4]triazolo[1,5-a]pyrazin-2-yl)ethyl)quinoline]",++++ (IC50 or EC300<0.5 μM ++++),> 6.30,–
Cn1cc(-c2cccc(F)c2)nc1CCc1cnc2ccccc2n1 [Compound 49],++++ (IC50 or EC300<0.5 μM ++++),> 6.30,–
Cc1cccc(-c2c[nH]c(CCc3nc4ccccc4c(=O)[nH]3)n2)c1 [Compound 56],++++ (IC50 or EC300<0.5 μM ++++),> 6.30,–
c1ccc2c(c1)ccc1[nH]c(CCc3cnc4ccccc4n3)nc12 [Compound 103],+ (IC50 or EC300>10 μM +),> 6.30,–
Fc1ccccc1-c1c[nH]c(CCc2cnc3ccccc3n2)n1 [Compound 75],++++ (IC50 or EC300<0.5 μM ++++),> 6.30,–
Cc1nc(CCc2nc3c4cccnc4ccc3n2C)nc2c1CCC2 [Compound 210],++++ (IC50 or EC300<0.5 μM ++++),> 6.30,–
c1ccc2nc(CCc3nc(-c4ccsc4)c[nH]3)cnc2c1 [Compound 73],++++ (IC50 or EC300<0.5 μM ++++),> 6.30,–
Cc1ncc(C)n2nc(CCc3cnc4ccccc4n3)nc12 [Compound 134],++ (1<IC50 or EC300<10 μM ++),> 6.30,–
Cc1ncc(C)n2nc(CCc3ccc4ccc5ncccc5c4n3)nc12 [Compound 142],++++ (IC50 or EC300<0.5 μM ++++),> 6.30,–
Cn1cc(-c2ccccc2)nc1CCc1ccc2ccccc2n1 [Compound 19],++++ (IC50 or EC300<0.5 μM ++++),> 6.30,–
c1ccc(-c2c[nH]c(COc3cnc4ccccc4n3)n2)cc1 [Compound 120],++ (1<IC50 or EC300<10 μM ++),> 6.30,–
O=c1[nH]c(CCc2nc(-c3ccc4c(c3)OCO4)c[nH]2)nc2ccccc12 [Compound 65],++ (1<IC50 or EC300<10 μM ++),5.00 to 6.00,–
Cn1cc(-c2ccccc2)nc1CCc1cnc2ccccc2n1 [Compound 20],+++ (0.5<IC50 or EC300<1 μM +++),> 6.30,–
c1ccc2nc(CCc3nc4c(ccc5ncccc54)[nH]3)cnc2c1 [Compound 102],++ (1<IC50 or EC300<10 μM ++),> 6.30,–
O=c1[nH]c(CCc2nc(-c3ccccc3)c[nH]2)nc2ccncc12 [Compound 5],+++ (0.5<IC50 or EC300<1 μM +++),> 6.30,–
Fc1cccc(-c2c[nH]c(CCc3ccc4ccccc4n3)n2)c1 [Compound 70],++ (1<IC50 or EC300<10 μM ++),> 6.30,–
Cn1cc(-c2ccccc2F)nc1CCc1cnc2ccccc2n1 [Compound 48],++++ (IC50 or EC300<0.5 μM ++++),> 6.30,–
Cn1cc(-c2ccco2)nc1CCc1ccc2ccccc2n1 [Compound 39],++++ (IC50 or EC300<0.5 μM ++++),> 6.30,–
O=c1[nH]c(CCc2nc(-c3ccc(F)cc3)c[nH]2)nc2ccccc12 [Compound 60],++ (1<IC50 or EC300<10 μM ++),6.00 to 6.30,–

Structure (SMILES),PDE-10 EC300 (μM) [1],"pIC50 [2, 3]",pIC50 [2]
Cn1cc(-c2cccc(F)c2)nc1CCc1ccc2ccccc2n1 [Compound 43],++ (1<IC50 or EC300<10 μM ++),> 6.30,–
c1ccc(-c2c[nH]c(CCc3ccc4ccccc4n3)n2)cc1 [Compound 11],++++ (IC50 or EC300<0.5 μM ++++),> 6.30,–
O=c1[nH]c(CCc2nc(-c3ccncc3)c[nH]2)nc2ccccc12 [Compound 57],+ (IC50 or EC300>10 μM +),5.00 to 6.00,–
Cn1cc(-c2ccccc2)nc1CCc1nc2ccccc2c(=O)[nH]1 [Compound 8],++++ (IC50 or EC300<0.5 μM ++++),< 5.00,–
C(=C\c1nc(-c2ccccc2)c[nH]1)/c1ncc2ccccc2n1 [Compound 12],++ (1<IC50 or EC300<10 μM ++),–,> 6.30
O=c1[nH]c(CCc2nc(-c3cccc(F)c3)c[nH]2)nc2ccccc12 [Compound 61],++ (1<IC50 or EC300<10 μM ++),> 6.30,–
COc1nc2ccccc2nc1CCc1nc2c3cccnc3ccc2n1C [Compound 144],++ (1<IC50 or EC300<10 μM ++),> 6.30,–
Cn1cc(-c2cccnc2)nc1CCc1cnc2ccccc2n1 [Compound 51],++ (1<IC50 or EC300<10 μM ++),> 6.30,–
O=c1oc(CCc2nc(-c3ccccc3)c[nH]2)nc2ccccc12 [Compound 82],+ (IC50 or EC300>10 μM +),5.00 to 6.00,–
Cn1cc(-c2ccsc2)nc1CCc1cnc2ccccc2n1 [Compound 46],++++ (IC50 or EC300<0.5 μM ++++),> 6.30,–
Cn1c(CCc2ccc3ncccc3n2)nc2c3cccnc3ccc21 [Compound 204],++++ (IC50 or EC300<0.5 μM ++++),> 6.30,–
Cc1ccc2nc(CCc3nc4c5cccnc5ccn4c3C)ccc2n1 [Compound 202],++++ (IC50 or EC300<0.5 μM ++++),> 6.30,–
Cn1cc(-c2ccccc2F)nc1CCc1ccc2ccccc2n1 [Compound 42],++++ (IC50 or EC300<0.5 μM ++++),> 6.30,–
O=c1[nH]c(CCc2nc(-c3ccccc3F)c[nH]2)nc2ccccc12 [Compound 59],++ (1<IC50 or EC300<10 μM ++),> 6.30,–
Cn1cc(-c2ccco2)nc1CCc1cnc2ccccc2n1 [Compound 45],++++ (IC50 or EC300<0.5 μM ++++),> 6.30,–
C(=C\c1nc(-c2ccccc2)c[nH]1)/c1ccccc1 [Compound 30],+ (IC50 or EC300>10 μM +),< 5.00,–
c1ccc(CCc2nc(-c3ccccc3)c[nH]2)cc1 [Compound 31],+ (IC50 or EC300>10 μM +),5.00 to 6.00,–
Fc1cccc(-c2c[nH]c(CCc3cnc4ccccc4n3)n2)c1 [Compound 76],++++ (IC50 or EC300<0.5 μM ++++),> 6.30,–
c1ccc(-c2c[nH]c(CCc3cnc4cccnc4n3)n2)cc1 [Compound 16],+++ (0.5<IC50 or EC300<1 μM +++),> 6.30,–
c1ccc2nc(CCc3nc(-c4ccsc4)c[nH]3)ccc2c1 [Compound 67],++++ (IC50 or EC300<0.5 μM ++++),> 6.30,–
Fc1cccc(-c2c[nH]c(CCc3cnc4ccccc4n3)n2)c1F [Compound 77],++++ (IC50 or EC300<0.5 μM ++++),> 6.30,–
O=c1[nH]c(CCc2nc(-c3ccccc3)c[nH]2)nc2cnccc12 [Compound 4],++ (1<IC50 or EC300<10 μM ++),> 6.30,–
c1coc(-c2c[nH]c(CCc3cnc4ccccc4n3)n2)c1 [Compound 72],++++ (IC50 or EC300<0.5 μM ++++),> 6.30,–
O=c1[nH]c(CCc2nc(-c3ccccc3)c[nH]2)cc2ccccc12 [Compound 34],++++ (IC50 or EC300<0.5 μM ++++),> 6.30,–
c1ccc(-c2c[nH]c(CCc3cc4ccccc4cn3)n2)cc1 [Compound 36],++ (1<IC50 or EC300<10 μM ++),> 6.30,–

# From patent US9834564B2, “Substituted quinolines as PDE-10 inhibitors” (priority 2010, dated 2017)
